# Where two headings read alike, the source gives them in different places.
# Experiments:
# PI3Kβ = test: PI3 Kinase HTRF assay, PI3Kβ; assay type: biochemical, human; conditions: 10 μM PIP2, 10 μM ATP; 'Greater than 10 μM' and 'Greater than 1 μM to 10 μM'; read-out: PI3K β IC50
# Method in brief: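 Recombinant PI3Kβ converting PIP2 (10 μM) to PIP3 with 10 μM ATP; PIP3 detected by competitive HTRF displacement of biotin-PIP3/GST-GRP1 PH domain complex. Emission ratios converted to % inhibition; IC50 by nonlinear regression.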
# PI3Kδ = molecular target: T1, PI3Kδ (Homo sapiens, UniProt O00329); test: PI3 Kinase HTRF assay, PI3Kδ; assay type: biochemical; conditions: 10 μM PIP2, 10 μM ATP, read-out: PI3K δ IC50
# T1 construct: purchased Millipore Corporation 14-604-K
# T1 sequence (O00329 whole entry): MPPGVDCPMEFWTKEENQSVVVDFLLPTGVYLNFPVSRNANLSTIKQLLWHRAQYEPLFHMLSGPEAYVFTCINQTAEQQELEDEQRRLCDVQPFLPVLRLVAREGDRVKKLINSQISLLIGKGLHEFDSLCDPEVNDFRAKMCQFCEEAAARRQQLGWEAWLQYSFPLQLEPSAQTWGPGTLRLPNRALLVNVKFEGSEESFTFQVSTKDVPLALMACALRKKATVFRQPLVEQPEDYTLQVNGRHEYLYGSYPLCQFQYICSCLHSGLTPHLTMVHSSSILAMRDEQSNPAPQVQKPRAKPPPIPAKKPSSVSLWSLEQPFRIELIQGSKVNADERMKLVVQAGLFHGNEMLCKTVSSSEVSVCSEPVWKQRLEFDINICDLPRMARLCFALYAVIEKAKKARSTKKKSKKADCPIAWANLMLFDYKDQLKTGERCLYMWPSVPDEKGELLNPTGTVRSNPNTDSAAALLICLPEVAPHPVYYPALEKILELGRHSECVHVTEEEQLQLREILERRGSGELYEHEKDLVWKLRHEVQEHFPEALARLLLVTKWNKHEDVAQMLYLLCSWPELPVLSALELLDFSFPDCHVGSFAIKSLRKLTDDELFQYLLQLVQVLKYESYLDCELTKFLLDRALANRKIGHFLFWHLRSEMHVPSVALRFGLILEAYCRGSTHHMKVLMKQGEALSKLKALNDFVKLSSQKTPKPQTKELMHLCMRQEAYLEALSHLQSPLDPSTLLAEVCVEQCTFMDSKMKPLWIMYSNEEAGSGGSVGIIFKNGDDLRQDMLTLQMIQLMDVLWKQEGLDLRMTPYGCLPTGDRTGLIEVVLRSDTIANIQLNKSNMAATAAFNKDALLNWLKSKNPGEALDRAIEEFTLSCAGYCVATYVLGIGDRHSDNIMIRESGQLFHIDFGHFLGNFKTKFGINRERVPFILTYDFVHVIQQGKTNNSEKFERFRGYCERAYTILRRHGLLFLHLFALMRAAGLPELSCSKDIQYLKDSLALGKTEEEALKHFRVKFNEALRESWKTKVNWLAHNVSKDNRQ
# T1 sequence (P27986 whole entry partner): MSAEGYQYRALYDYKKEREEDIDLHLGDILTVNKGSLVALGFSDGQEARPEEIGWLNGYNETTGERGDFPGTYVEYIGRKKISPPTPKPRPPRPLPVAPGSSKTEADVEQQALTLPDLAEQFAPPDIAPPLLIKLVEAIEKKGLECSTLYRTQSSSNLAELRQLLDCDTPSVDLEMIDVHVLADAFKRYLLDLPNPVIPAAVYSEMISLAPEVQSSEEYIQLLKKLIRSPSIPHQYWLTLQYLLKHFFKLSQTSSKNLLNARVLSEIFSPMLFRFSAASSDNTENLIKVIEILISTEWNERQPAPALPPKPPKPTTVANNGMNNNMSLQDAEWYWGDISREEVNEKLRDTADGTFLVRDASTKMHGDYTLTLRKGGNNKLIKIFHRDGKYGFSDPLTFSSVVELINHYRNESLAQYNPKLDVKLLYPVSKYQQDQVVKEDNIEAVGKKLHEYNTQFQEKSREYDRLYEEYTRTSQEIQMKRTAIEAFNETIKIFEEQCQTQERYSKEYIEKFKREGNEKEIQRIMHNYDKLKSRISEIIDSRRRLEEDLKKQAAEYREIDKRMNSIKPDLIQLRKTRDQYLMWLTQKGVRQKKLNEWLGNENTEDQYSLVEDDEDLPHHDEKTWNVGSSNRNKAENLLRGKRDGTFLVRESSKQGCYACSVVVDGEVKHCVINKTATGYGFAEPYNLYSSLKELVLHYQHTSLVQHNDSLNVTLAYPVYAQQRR
# Text: (§1) A PI3-Kinase HTRF® assay kit (cat No. 33-016) purchased from Millipore Corporation was used to screen compounds provided herein. This assay used specific, high affinity binding of the GRP1 pleckstrin homology (PH) domain to PIP3, the product of a Class 1A or 1B PI3 Kinase acting on its physiological substrate PIP2. During the detection phase of the assay, a complex was generated between the GST-tagged PH domain and biotinylated short chain PIP3. The biotinylated PIP3 and the GST-tagged PH domain recruited fluorophores (Streptavidin-Allophycocyanin and Europium-labeled anti-GST respectively) to form the fluorescence resonance energy transfer (FRET) architecture, generating a stable time-resolved FRET signal. The FRET complex was disrupted in a competitive manner by non-biotinylated PIP3, a product formed in the PI3 Kinase assay.
# (§2) PI3 Kinase α, β, γ and δ activity was assayed using the PI3 Kinase HTRF® assay kit (catalogue No. 33-016) purchased from Millipore Corporation. Purified recombinant PI3Kα (catalogue No. 14-602-K), PI3Kβ (catalogue No. 14-603-K), PI3Kγ (catalogue No. 14-558-K) and PI3Kδ (catalogue No. 14-604-K) were obtained from Millipore Corporation. Purified recombinant PI3K enzyme was used to catalyze the phosphorylation of phosphatidylinositol 4,5-bisphosphate (PIP2 at 10 μM) to phosphatidylinositol 3,4,5-trisphosphate (PIP3) in the presence of 10 μM ATP. The assay was carried out in 384-well format and detected using a Perkin Elmer EnVision Xcite Multilabel Reader. Emission ratios were converted into percent inhibitions and imported into GraphPad Prism software. The concentration necessary to achieve inhibition of enzyme activity by 50% (IC50) was calculated using concentrations ranging from 20 μM to 0.1 nM (12-point curve). IC50 values were determined using a nonlinear regression model available in GraphPad Prism 5. […]
# [1] = system: phospho-AKT in RAJI cells (PI3Kδ); test: PI3Kδ selective cellular assay: phospho-AKT in anti-human IgM stimulated RAJI cells; assay type: cell-based; conditions: read-out: IC50 for phospho-AKT, RAJI cell model
# Text: A compound's ability in selectively inhibiting PI3Kδ can be assessed using RAJI cells, i.e., B lymphocyte cells derived from lymphoma patients. Briefly, serum-starved RAJI cells are stimulated with anti-human IgM, thereby causing signaling through the B-cell receptors, as described in, for example, He et al., Leukemia Research (2009) 33: 798-802. B-cell receptor signaling is important for the activation, differentiation, and survival of B cells and certain B-cell derived cancers. Reduction of phospho-AKT is indicative of compounds that may inhibit B-cell proliferation and function in certain diseases. By monitoring the reduction of phospho-AKT in stimulated RAJI cells (using for example, phospho-AKT antibodies), a compound's potential efficacy in selectively inhibiting PI3Kδ can be assessed.
# Certain compounds provided herein (e.g., Compounds I-21, I-86, I-87, I-91, I-106, and III-13) were tested in RAJI cell model using procedures as described above.
# PI3Kα = molecular target: T2, PI3Kα (Homo sapiens, UniProt P42336); test: PI3 Kinase HTRF assay, PI3Kα; assay type: biochemical; conditions: 10 μM PIP2, 10 μM ATP; 'Greater than 10 μM' and 'Greater than 1 μM to 10 μM'; read-out: PI3K α IC50
# T2 construct: purchased Millipore Corporation 14-602-K
# T2 sequence (P42336 whole entry): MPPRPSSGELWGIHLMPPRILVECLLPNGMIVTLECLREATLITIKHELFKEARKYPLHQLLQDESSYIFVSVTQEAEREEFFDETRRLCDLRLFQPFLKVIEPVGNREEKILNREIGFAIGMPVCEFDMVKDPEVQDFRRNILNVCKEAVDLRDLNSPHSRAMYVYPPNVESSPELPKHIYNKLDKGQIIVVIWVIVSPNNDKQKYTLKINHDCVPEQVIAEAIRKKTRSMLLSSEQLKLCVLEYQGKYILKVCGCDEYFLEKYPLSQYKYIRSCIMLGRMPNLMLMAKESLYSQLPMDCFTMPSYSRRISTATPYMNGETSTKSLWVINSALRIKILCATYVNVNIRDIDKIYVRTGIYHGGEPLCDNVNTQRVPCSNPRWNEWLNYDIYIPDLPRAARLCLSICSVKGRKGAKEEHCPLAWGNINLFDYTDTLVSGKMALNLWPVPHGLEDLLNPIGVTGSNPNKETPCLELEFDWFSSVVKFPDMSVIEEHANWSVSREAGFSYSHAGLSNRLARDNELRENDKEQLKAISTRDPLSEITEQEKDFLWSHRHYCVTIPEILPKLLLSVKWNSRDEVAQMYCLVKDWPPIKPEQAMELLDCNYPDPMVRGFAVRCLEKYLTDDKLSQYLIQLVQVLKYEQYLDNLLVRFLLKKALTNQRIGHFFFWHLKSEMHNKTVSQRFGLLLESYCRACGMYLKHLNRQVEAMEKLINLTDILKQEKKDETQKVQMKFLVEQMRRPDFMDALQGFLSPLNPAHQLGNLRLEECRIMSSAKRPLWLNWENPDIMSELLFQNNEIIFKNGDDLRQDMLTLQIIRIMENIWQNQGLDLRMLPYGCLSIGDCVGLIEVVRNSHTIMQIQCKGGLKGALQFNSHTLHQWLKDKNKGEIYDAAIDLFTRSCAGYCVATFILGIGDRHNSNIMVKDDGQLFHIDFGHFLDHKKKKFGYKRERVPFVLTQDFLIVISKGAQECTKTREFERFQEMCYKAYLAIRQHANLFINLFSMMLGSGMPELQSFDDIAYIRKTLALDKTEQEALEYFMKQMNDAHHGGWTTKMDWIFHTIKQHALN
# T2 sequence (P27986 whole entry partner): as the sequence (P27986 whole entry partner) above
# Text: as §1, §2
# [2] = system: phospho-AKT in RAW 264.7 cells (PI3Kγ); test: PI3Kγ selective cellular assay: phospho-AKT in C5a stimulated RAW 264.7 cells; assay type: cell-based; conditions: Mus musculus, RAW264.7, range with units in value, read-out: IC50 for phospho-AKT, RAW 264.7 cell model
# Text: A compound's ability in selectively inhibiting PI3Kγ can be assessed using RAW264.7 macrophages. Briefly, serum-starved PAW264.7 cells are stimulated with a known GPCR agonist C5a. (See, e.g., Camps et al., Nature Medicine (2005) 11(9): 936-943). Cells can be treated with test compounds prior to, simultaneously with, or subsequent to the stimulation by C5a. RAW 264.7 cells respond to the complement component fragment C5a through activation of the C5a receptor, and the C5a receptor activates macrophages and induces cell migration. Test compounds' ability to inhibit C5a-mediated AKT phosphorylation is indicative of selective inhibition of PI3Kγ. Thus, by monitoring the reduction of phospho-AKT in stimulated RAW 264.7 cells (using for example, phospho-AKT antibodies), a compound's potential efficacy in selectively inhibiting PI3Kγ can be assessed.
# Certain compounds provided herein (e.g., Compounds I-21, I-86, I-87, I-91, I-106, and III-13) were tested in RAW 264.7 cell model using procedures as described above.
# PI3Kγ = molecular target: T3, PI3Kγ (Homo sapiens, UniProt P48736); test: PI3 Kinase HTRF assay, PI3Kγ; assay type: biochemical; conditions: 10 μM PIP2, 10 μM ATP; 'Greater than 10 μM' and 'Greater than 1 μM to 10 μM'; read-out: PI3K γ IC50
# T3 construct: purchased Millipore Corporation 14-558-K
# T3 sequence (P48736 whole entry): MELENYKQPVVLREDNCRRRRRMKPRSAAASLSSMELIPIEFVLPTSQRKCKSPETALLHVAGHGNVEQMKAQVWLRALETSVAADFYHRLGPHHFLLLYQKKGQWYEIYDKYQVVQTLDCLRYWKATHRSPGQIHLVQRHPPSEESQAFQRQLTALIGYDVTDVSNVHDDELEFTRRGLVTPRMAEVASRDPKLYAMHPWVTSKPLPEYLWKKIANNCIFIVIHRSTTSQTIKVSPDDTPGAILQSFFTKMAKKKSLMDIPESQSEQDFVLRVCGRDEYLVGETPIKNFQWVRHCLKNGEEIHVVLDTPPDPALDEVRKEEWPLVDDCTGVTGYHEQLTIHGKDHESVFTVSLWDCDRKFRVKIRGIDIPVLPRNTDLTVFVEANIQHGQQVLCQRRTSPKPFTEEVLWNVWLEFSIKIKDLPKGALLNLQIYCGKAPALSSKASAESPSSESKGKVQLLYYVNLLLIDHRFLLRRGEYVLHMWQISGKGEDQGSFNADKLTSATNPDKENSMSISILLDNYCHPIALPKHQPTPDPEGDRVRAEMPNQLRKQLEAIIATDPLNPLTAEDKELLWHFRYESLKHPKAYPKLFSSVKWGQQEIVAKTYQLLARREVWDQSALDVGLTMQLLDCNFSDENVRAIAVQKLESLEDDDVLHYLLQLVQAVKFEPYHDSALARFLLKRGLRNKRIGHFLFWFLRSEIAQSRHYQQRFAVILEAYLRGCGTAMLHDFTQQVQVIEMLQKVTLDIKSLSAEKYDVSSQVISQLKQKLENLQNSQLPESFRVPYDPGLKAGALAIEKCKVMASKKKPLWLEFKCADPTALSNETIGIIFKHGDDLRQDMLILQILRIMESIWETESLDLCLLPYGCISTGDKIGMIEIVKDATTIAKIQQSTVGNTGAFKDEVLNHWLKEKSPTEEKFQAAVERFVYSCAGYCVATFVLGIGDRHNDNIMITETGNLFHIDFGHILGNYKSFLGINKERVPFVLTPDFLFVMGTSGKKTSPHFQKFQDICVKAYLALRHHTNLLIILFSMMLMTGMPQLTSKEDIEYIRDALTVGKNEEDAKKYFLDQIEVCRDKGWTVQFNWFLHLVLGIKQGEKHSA
# Text: as §1, §2
# Balb/c splenic B cells = test: B cell activation and proliferation assay (Alamar Blue); assay type: cell-based; conditions: Mus musculus
# Method in brief: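 Balb/c splenic B cells (Ficoll, then MACS purification; 50,000/well) were preincubated 30 min with compound at 0.2% final DMSO. They were then stimulated 72 h at 37 °C with a cocktail of 10 μg/ml LPS, or 5 μg/ml anti-mouse F(ab′)2 plus 2 ng/ml mouse IL4. Alamar Blue was read after 5 h at 560Ex/590Em, giving IC50 or EC50.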
# [3] = 'Greater than 10 μM' and 'Greater than 1 μM to 10 μM'
# [4] = column 'Greater than 1 μM to 10 μM'
# PI3Kβ, sequence (Q8BTI9 whole entry, the tested form may be a part): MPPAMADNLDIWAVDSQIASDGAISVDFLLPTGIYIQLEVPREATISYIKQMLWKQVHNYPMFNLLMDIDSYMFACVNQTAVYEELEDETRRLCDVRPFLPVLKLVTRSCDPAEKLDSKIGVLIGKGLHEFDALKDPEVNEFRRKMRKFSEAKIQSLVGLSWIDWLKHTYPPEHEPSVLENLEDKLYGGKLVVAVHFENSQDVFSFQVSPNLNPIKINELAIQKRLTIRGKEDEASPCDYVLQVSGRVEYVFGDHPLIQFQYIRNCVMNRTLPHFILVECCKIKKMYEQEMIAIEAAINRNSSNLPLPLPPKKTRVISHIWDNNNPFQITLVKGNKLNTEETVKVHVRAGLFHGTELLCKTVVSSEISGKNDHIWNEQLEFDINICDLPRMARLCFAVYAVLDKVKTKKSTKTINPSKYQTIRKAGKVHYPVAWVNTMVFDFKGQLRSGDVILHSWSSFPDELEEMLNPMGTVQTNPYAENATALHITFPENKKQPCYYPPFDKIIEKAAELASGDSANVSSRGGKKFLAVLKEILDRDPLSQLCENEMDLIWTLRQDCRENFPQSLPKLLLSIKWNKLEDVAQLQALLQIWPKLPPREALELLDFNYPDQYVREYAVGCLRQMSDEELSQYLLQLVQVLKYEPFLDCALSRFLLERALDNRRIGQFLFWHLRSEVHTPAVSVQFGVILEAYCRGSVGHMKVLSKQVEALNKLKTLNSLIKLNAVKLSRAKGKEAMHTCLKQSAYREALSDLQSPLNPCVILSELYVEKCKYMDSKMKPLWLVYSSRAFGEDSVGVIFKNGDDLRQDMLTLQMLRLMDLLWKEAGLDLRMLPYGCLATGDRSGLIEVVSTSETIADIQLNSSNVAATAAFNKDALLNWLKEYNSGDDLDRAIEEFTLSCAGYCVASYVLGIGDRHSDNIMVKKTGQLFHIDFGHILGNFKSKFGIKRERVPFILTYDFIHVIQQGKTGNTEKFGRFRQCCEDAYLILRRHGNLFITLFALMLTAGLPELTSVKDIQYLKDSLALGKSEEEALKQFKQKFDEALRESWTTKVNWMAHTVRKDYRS
IC50 (PI3Kβ) [µM],IC50 (PI3Kδ; [3]) [µM],IC50 (PI3Kγ) [µM],SMILES,further results
> 10,1 to 10,1 to 10,Cc1cn2nccc(N[C@@H](C)c3cc4cccc(Cl)c4c(=O)n3-c3ccccc3)c2n1 [II-32],
> 10,1 to 10,1 to 10,Cc1cn2nccc(N[C@@H](C)c3cc4cccc(-c5cnn(C)c5)c4c(=O)n3-c3ccccc3)c2n1 [II-33],
> 10,> 10,> 10,C[C@@H](Nc1ncnc2cc(F)c(F)cc12)c1cc2cccc(Cl)c2c(=O)n1-c1ccccc1 [IV-3],IC50 (PI3Kα): > 10 µM
> 10,1 to 10,,C[C@H](Nc1ncnn2cncc12)c1cc2cccc(Cl)c2c(=O)n1-c1cccc(F)c1 [IV-14],
> 10,,1 to 10,C[C@H](Nc1ncnc(N)n1)c1cc2cccc(Cl)c2c(=O)n1-c1cccc(F)c1 [IV-2],EC50 (Balb/c splenic B cells; 'Less than 100 nM'): < 0.1 µM
> 10,1 to 10,,C[C@H](Nc1ncnn2cncc12)c1cc2cccc(C(F)(F)F)c2c(=O)n1-c1ccccc1 [III-28],
> 10,1 to 10,1 to 10,Cc1cn2nccc(N[C@@H](C)c3cc4cccc(Cl)c4c(=O)n3-c3cccc(F)c3)c2n1 [II-31],
> 10,> 10,> 10,C[C@@H](Nc1ncnc2cc(F)ccc12)c1cc2cccc(Cl)c2c(=O)n1-c1ccccc1 [IV-1],IC50 (PI3Kα): > 10 µM
> 10,1 to 10,1 to 10,C[C@H](Nc1cc(Cl)nn2ccnc12)c1cc2cccc(-c3cnn(C)c3)c2c(=O)n1C1CC1 [II-13],
> 10,1 to 10,1 to 10,C[C@H](Nc1nc(Cl)nc2nccnc12)c1cc2cccc(Cl)c2c(=O)n1-c1ccccc1 [IV-20],
1 to 10,1 to 10,,C[C@H](Nc1ccnc2ccnn12)c1cc2cccc(Cl)c2c(=O)n1CCN1CCCC1 [II-28],
> 10,1 to 10,,C[C@H](Nc1ncc2[nH]cnc2n1)c1cc2cccc(Cl)c2c(=O)n1-c1ccccc1 [IV-7],
1 to 10,1 to 10,,C[C@H](Nc1ccnn2ccnc12)c1cc2cccc(Cl)c2c(=O)n1CCN1CCCC1 [II-29],
1 to 10,,1 to 10,C[C@H](Nc1ncnc2ccnn12)c1cc2cccc(Cl)c2c(C(=O)N2CCOCC2)n1 [II-44],IC50 (PI3Kα): > 10 µM
> 10,1 to 10,,C[C@H](Nc1nc(Cl)nc2nc(Cl)cnc12)c1cc2cccc(Cl)c2c(=O)n1-c1ccccc1 [IV-19],
> 10,1 to 10,,C[C@H](Nc1nc(Cl)nc2cccnc12)c1cc2cccc(C(F)(F)F)c2c(=O)n1-c1ccccc1 [III-22],
> 10,1 to 10,,"C[C@H](NCc1cnc2cccnn12)c1cc2cccc(Cl)c2c(=O)n1-c1ccccc1 [IV-9, (S)-8-chloro-3-(1-(imidazo[1,2-b]pyridazin-3-ylmethylamino)ethyl)-2-phenylisoquinolin-1(2H)-one]",
1 to 10,,1 to 10,C[C@H](Nc1ccnc2ccnn12)c1cc2cccc(-c3cnn(C)c3)c2c(=O)n1C1CC1 [II-8],IC50 (PI3Kα): 1 to 10 µM

# Second part, the compound before the results:
SMILES,IC50 (PI3Kβ) [µM],IC50 (PI3Kδ; [3]) [µM],IC50 (PI3Kγ) [µM],further results
"Cc1ccnc2cc(C(C)Nc3ncnc4cccnc34)[nH]c(=O)c12 (stereo not drawn) [Compound I-68, 4-methyl-7-(1-(pyrido[3,2-d]pyrimidin-4-ylamino)ethyl)-1,6-naphthyridin-5(6H)-one]",> 10,1 to 10,,
CC(C)n1c([C@H](C)Nc2ncnc3cccnc23)cc2cccc(-c3ccc(=O)n(C)c3)c2c1=O [Compound I-106],1 to 10,,1 to 10,IC50 [1]: < 0.1 µM; IC50 (PI3Kα): 1 to 10 µM; IC50 [2]: 0.1 to 1 µM
C[C@H](Nc1nc(Cl)nc2cccnc12)c1cc2cccc(Cl)c2c(=O)n1-c1ccccc1 [Compound I-52],> 10,1 to 10,,EC50 (Balb/c splenic B cells; 1 μM to 100 nM): 0.1 to 1 µM
C[C@H](Nc1ncnc2cccnc12)c1cc2cc(F)ccc2c(=O)n1-c1ccccc1 [Compound I-6],> 10,,1 to 10,EC50 (Balb/c splenic B cells; 1 μM to 100 nM): 0.1 to 1 µM; IC50 (PI3Kα): 1 to 10 µM
Cc1nsc2cc(C(C)Nc3ncnc4cccnc34)n(-c3ccccc3)c(=O)c12 (stereo not drawn) [Compound I-27],> 10,,1 to 10,EC50 (Balb/c splenic B cells; 1 μM to 100 nM): 0.1 to 1 µM
C[C@H](Nc1ncnc2cccnc12)c1cc2cccc(-c3cnn(C)c3)c2c(=O)n1C [Compound I-46],> 10,1 to 10,1 to 10,
C[C@H](Nc1ncnc2cccnc12)c1cc2scc(-c3cnn(C)c3)c2c(=O)n1-c1ccccc1 [Compound I-30],> 10,1 to 10,,
COc1ncc(-c2cccc3cc([C@H](C)Nc4cc(O)nc5cccnc45)n(-c4ccccc4)c(=O)c23)cn1 [Compound I-99],> 10,1 to 10,,EC50 (Balb/c splenic B cells; [4]): 1 to 10 µM
C[C@H](Nc1ncnc2cccnc12)c1cc2c(F)ccc(Cl)c2c(=O)n1-c1ccccc1 [Compound I-14],,,,EC50 (Balb/c splenic B cells; 'Less than 100 nM'): < 0.1 µM; IC50 (PI3Kδ; 'Less than 100 nM'): < 0.1 µM
C[C@H](Nc1nc(N)nc2cccnc12)c1cc2cccc(N(C)C)c2c(=O)n1-c1ccccc1 [Compound I-102],> 10,1 to 10,,
C[C@H](Nc1cc(O)nc2cccnc12)c1cc2cccc(Cl)c2c(=O)n1-c1ccccc1 [Compound I-100],> 10,1 to 10,1 to 10,EC50 (Balb/c splenic B cells; [4]): 1 to 10 µM

# Source: US8969363B2, “Heterocyclic compounds and uses thereof” (Infinity Pharmaceuticals, Inc., priority 2011, dated 2015)
